Results: PubChem BioAssay AID248 (DTP/NCI, 2004)
Toxic doses and inconclusive results are not listed. Cut-off read from the data, not from the text of the source: active = T/C of 150% or more; inactive = T/C below 125%.

Tested on: L1210 leukemia ip in BDF1 mice, survival T/C
Test: NCI In Vivo Anticancer Drug Screen. Data for tumor model L1210 Leukemia (intraperitoneal) in B6D2F1 (BDF1) mice
Settings: endpoint: mean survival time, higher = longer survival
How it was run: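 Read-out is survival time, reported as the treated-group measurement over the vehicle-control measurement.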

[1] = dose: 100.0 mg/kg/injection, schedule: Q01DX001 (ip), vehicle: acetone
[2] = dose: 100.0 mg/kg/injection, schedule: Q01DX009 (ip), vehicle: saline
[3] = dose: 100.0 mg/kg/injection, schedule: Q04DX003 (ip), vehicle: saline
[4] = dose: 200.0 mg/kg/injection, schedule: Q01DX009 (ip), vehicle: saline
[5] = dose: 200.0 mg/kg/injection, schedule: Q04DX003 (ip), vehicle: saline
[6] = dose: 400.0 mg/kg/injection, schedule: Q01DX009 (ip), vehicle: saline
[7] = dose: 400.0 mg/kg/injection, schedule: Q04DX003 (ip), vehicle: saline
[8] = dose: 100.0 mg/kg/injection, schedule: Q01DX001 (ip), vehicle: saline
[9] = dose: 200.0 mg/kg/injection, schedule: Q01DX001 (ip), vehicle: saline
[10] = dose: 400.0 mg/kg/injection, schedule: Q01DX001 (ip), vehicle: saline
[11] = dose: 100.0 mg/kg/injection, schedule: Q01DX009 (ip), vehicle: Klucel (hydroxypropylcellulose) (HPC)
[12] = dose: 200.0 mg/kg/injection, schedule: Q01DX009 (ip), vehicle: Klucel (hydroxypropylcellulose) (HPC)
[13] = dose: 400.0 mg/kg/injection, schedule: Q01DX009 (ip), vehicle: Klucel (hydroxypropylcellulose) (HPC)

Measured: T/C

C=C1C(=O)O[C@@H]2C[C@@H](C)[C@@H]3[C@@H](OC4OC(COC(C)=O)C(O)C(O)C4O)CC(=O)[C@@]3(C)C[C@H]12 (some centres not stated)
inactive: dose: 6.4 mg/kg/injection, schedule: Q01DX009 (ip), vehicle: saline 101 % of control | dose: 9.6 mg/kg/injection, schedule: Q01DX009 (ip), vehicle: saline 97 % of control | dose: 14.0 mg/kg/injection, schedule: Q01DX009 (ip), vehicle: saline 104 % of control | dose: 22.0 mg/kg/injection, schedule: Q01DX009 (ip), vehicle: saline 98 % of control | dose: 100.0 mg/kg/injection, schedule: Q04DX003 (ip), vehicle: saline with Tween-80 100 % of control | dose: 200.0 mg/kg/injection, schedule: Q04DX003 (ip), vehicle: saline with Tween-80 89 % of control | dose: 400.0 mg/kg/injection, schedule: Q04DX003 (ip), vehicle: saline with Tween-80 94 % of control

CCCCS(=O)C1(CCC)OC1(c1ccccc1)c1ccccc1 (configuration not stated)
inactive: dose: 100.0 mg/kg/injection, schedule: Q03DX002 (ip), vehicle: other 121 % of control | dose: 200.0 mg/kg/injection, schedule: Q03DX002 (ip), vehicle: other 102 % of control | dose: 400.0 mg/kg/injection, schedule: Q03DX002 (ip), vehicle: other 96 % of control

CCCCSc1n[nH]c(=O)nc1SC
inactive: [1] 104 % of control

CCOC(CNC(=O)CC(C)=O)OCC
inactive: [2] 96 % of control | [3] 104 % of control | [4] 104 % of control | [5] 108 % of control | [6] 98 % of control | [7] 103 % of control

CNc1nc(Cl)ncc1C
inactive: dose: 0.2 mg/kg/injection, schedule: Q01DX Z (ip), vehicle: methylcellulose (MC) 90 % of control | dose: 0.5 mg/kg/injection, schedule: Q01DX Z (ip), vehicle: methylcellulose (MC) 89 % of control

CCOc1ccc2nc(C)sc2c1
inactive: dose: 100.0 mg/kg/injection, schedule: Q04DX003 (ip), vehicle: acetone 97 % of control | dose: 200.0 mg/kg/injection, schedule: Q04DX003 (ip), vehicle: acetone 95 % of control | dose: 400.0 mg/kg/injection, schedule: Q04DX003 (ip), vehicle: acetone 93 % of control

Cc1cc([N+](=O)[O-])c(C)c([N+](=O)[O-])c1Cl
inactive: [1] 101 % of control | [2] 90 % of control | [3] 95 % of control | dose: 200.0 mg/kg/injection, schedule: Q01DX001 (ip), vehicle: acetone 97 % of control | [4] 95 % of control | [5] 103 % of control | dose: 400.0 mg/kg/injection, schedule: Q01DX001 (ip), vehicle: acetone 95 % of control | [6] 88 % of control | [7] 98 % of control

CCCC/C(=N\NC(N)=S)c1ccc(F)cc1
inactive: dose: 8.0 mg/kg/injection, schedule: Q01DX Z (ip), vehicle: methylcellulose (MC) 95 % of control | dose: 15.0 mg/kg/injection, schedule: Q01DX Z (ip), vehicle: methylcellulose (MC) 89 % of control | dose: 30.0 mg/kg/injection, schedule: Q01DX Z (ip), vehicle: methylcellulose (MC) 98 % of control | dose: 30.0 mg/kg/injection, schedule: Q01DX Z (oral), vehicle: methylcellulose (MC) 86 % of control | dose: 60.0 mg/kg/injection, schedule: Q01DX Z (ip), vehicle: methylcellulose (MC) 87 % of control

C[N+](C)(C)c1ccc(N2C(=O)C3C4c5ccccc5C(C3C2=O)[n+]2ccccc24)cc1 (configuration not stated)
inactive: dose: 1.56 mg/kg/injection, schedule: Q01DX009 (ip), vehicle: Klucel (hydroxypropylcellulose) (HPC) 103 % of control | dose: 3.12 mg/kg/injection, schedule: Q01DX009 (ip), vehicle: Klucel (hydroxypropylcellulose) (HPC) 97 % of control | dose: 6.25 mg/kg/injection, schedule: Q01DX009 (ip), vehicle: Klucel (hydroxypropylcellulose) (HPC) 100 % of control | dose: 12.5 mg/kg/injection, schedule: Q04DX003 (ip), vehicle: saline 101 % of control | dose: 25.0 mg/kg/injection, schedule: Q04DX003 (ip), vehicle: saline 94 % of control

O=C(CNC(=O)NCc1ccccc1)NNC(=O)Nc1cccc(C(F)(F)F)c1
inactive: dose: 50.0 mg/kg/injection, schedule: Q01DX009 (ip), vehicle: saline with Tween-80 102 % of control | dose: 100.0 mg/kg/injection, schedule: Q01DX009 (ip), vehicle: saline with Tween-80 87 % of control | dose: 200.0 mg/kg/injection, schedule: Q01DX009 (ip), vehicle: saline with Tween-80 91 % of control

Cc1cc(N=Cc2cccc([N+](=O)[O-])c2O)c2ccccc2n1
inactive: dose: 100.0 mg/kg/injection, schedule: Q01DX001 (ip), vehicle: other 101 % of control

COc1cc(C#N)ccc1O
inactive: dose: 100.0 mg/kg/injection, schedule: Q01DX009 (ip), vehicle: gum acacia 106 % of control | dose: 100.0 mg/kg/injection, schedule: Q04DX003 (ip), vehicle: gum acacia 103 % of control | dose: 200.0 mg/kg/injection, schedule: Q01DX009 (ip), vehicle: gum acacia 106 % of control | dose: 200.0 mg/kg/injection, schedule: Q04DX003 (ip), vehicle: gum acacia 100 % of control | dose: 400.0 mg/kg/injection, schedule: Q01DX009 (ip), vehicle: gum acacia 90 % of control | dose: 400.0 mg/kg/injection, schedule: Q04DX003 (ip), vehicle: gum acacia 94 % of control

N#CCCNC(=S)Nc1ccccc1
inactive: dose: 25.0 mg/kg/injection, schedule: Q01DX Z (ip), vehicle: methylcellulose (MC) 102 % of control | dose: 50.0 mg/kg/injection, schedule: Q01DX Z (ip), vehicle: methylcellulose (MC) 101 % of control

COC(=O)C1OC1c1cc(Br)ccc1OC (configuration not stated)
inactive: [8] 102 % of control | [9] 103 % of control | [10] 102 % of control

CC(C)(C)OC(=O)C1OC1(C)c1ccccc1 (configuration not stated)
inactive: dose: 75.0 mg/kg/injection, schedule: Q01DX001 (ip), vehicle: other 106 % of control | dose: 150.0 mg/kg/injection, schedule: Q01DX001 (ip), vehicle: other 107 % of control | dose: 300.0 mg/kg/injection, schedule: Q01DX001 (ip), vehicle: other 98 % of control

N#CC(c1ccccc1)C(O)(c1ccccc1)c1ccccc1 (configuration not stated)
inactive: dose: 50.0 mg/kg/injection, schedule: Q01DX001 (ip), vehicle: saline 98 % of control | [8] 98 % of control | [9] 93 % of control | [10] 91 % of control

O=C(c1ccccc1Cl)N(Cc1ccccc1)c1ccccc1
inactive: [11] 102 % of control | [12] 103 % of control | [13] 100 % of control

CCOC(=O)c1ccc(N=NN(CCF)CCF)cc1
inactive: dose: 10.0 mg/kg/injection, schedule: Q01DX Z (ip), vehicle: saline 95 % of control | dose: 30.0 mg/kg/injection, schedule: Q01DX Z (ip), vehicle: saline 94 % of control | dose: 100.0 mg/kg/injection, schedule: Q01DX Z (ip), vehicle: saline 89 % of control | dose: 300.0 mg/kg/injection, schedule: Q01DX Z (ip), vehicle: saline 95 % of control

O=S1(=O)OC(c2ccccc2)(c2ccccc2)c2ccccc21
inactive: dose: 100.0 mg/kg/injection, schedule: Q01DX001 (ip), vehicle: carboxymethylcellulose (CMC) 100 % of control | dose: 200.0 mg/kg/injection, schedule: Q01DX001 (ip), vehicle: carboxymethylcellulose (CMC) 100 % of control | dose: 400.0 mg/kg/injection, schedule: Q01DX001 (ip), vehicle: carboxymethylcellulose (CMC) 100 % of control

CCCCCCCC(=O)[O][Hg][c]1ccccc1
inactive: dose: 9.38 mg/kg/injection, schedule: Q01DX001 (ip), vehicle: saline 98 % of control | dose: 18.75 mg/kg/injection, schedule: Q01DX001 (ip), vehicle: saline 88 % of control | dose: 37.5 mg/kg/injection, schedule: Q01DX001 (ip), vehicle: saline 102 % of control

O=C(Nc1ccccc1)C(CCCCN1C(=O)c2ccccc2C1=O)N1C(=O)c2ccccc2C1=O (configuration not stated)
inactive: [11] 95 % of control | [12] 106 % of control | [13] 100 % of control

COc1cc(Cc2c3cc4c(cc3cc[n+]2C)OCO4)c(Oc2cc(Cc3c4cc5c(cc4cc[n+]3C)OCO5)ccc2OC)cc1OC
inactive: dose: 3.12 mg/kg/injection, schedule: Q04DX003 (ip), vehicle: saline with Tween-80 97 % of control | dose: 6.25 mg/kg/injection, schedule: Q04DX003 (ip), vehicle: saline with Tween-80 95 % of control | dose: 12.5 mg/kg/injection, schedule: Q04DX003 (ip), vehicle: saline with Tween-80 95 % of control
